pIC50: −log10 of the molar value.
These compounds were tested on Leishmania donovani (assay: Antileishmanial activity against Leishmania donovani LV9 promastigotes by MTT method).
Assay type: functional, organism-based
In the case of `CC(=O)OC[C@H]1O[C@@H](n2cc(C3C(C#N)=C(N)OC4=C3C(=O)CC(c3ccc(F)cc3)C4)c(=O)[nH]c2=O)C[C@@H]1OC(C)=O` (some centres undefined), the pIC50 was 4.02.
`N#CC1=C(N)Oc2cc3ccccc3c(O)c2C1c1cn([C@H]2C[C@H](O)[C@@H](CO)O2)c(=O)[nH]c1=O` (some centres undefined) was tested, and the pIC50 was under 4.00.
Compound `CC(=O)OC[C@H]1O[C@@H](n2cc(C3C(C#N)=C(N)OC4=C3C(=O)CC(c3ccccc3)C4)c(=O)[nH]c2=O)C[C@@H]1OC(C)=O` (some centres undefined) has a pIC50 of 4.07.
Compound `N#CC(C#N)=Cc1cn([C@H]2C[C@H](O)[C@@H](CO)O2)c(=O)[nH]c1=O` has a pIC50 of 5.82.
Work on `CC(=O)OC[C@H]1O[C@@H](n2cc(C=O)c(=O)[nH]c2=O)C[C@@H]1OC(C)=O` yielded a pIC50 of under 4.00.
`CC(=O)OC[C@H]1O[C@@H](n2cc(C=C(C#N)C#N)c(=O)[nH]c2=O)C[C@@H]1OC(C)=O` showed a pIC50 of 4.52.
Compound `CC(=O)OC[C@H]1O[C@@H](n2cc(/C=C/C#N)c(=O)[nH]c2=O)C[C@@H]1OC(C)=O` has a pIC50 of under 4.00.
Compound `N#C/C=C/c1cn([C@H]2C[C@H](O)[C@@H](CO)O2)c(=O)[nH]c1=O` has a pIC50 of 4.04.
`COC(=O)/C(C#N)=C/c1cn([C@H]2C[C@H](O)[C@@H](CO)O2)c(=O)[nH]c1=O` gave a pIC50 of 5.14.
`N#CC1=C(N)OC2=C(C(=O)CCC2)C1c1cn([C@H]2C[C@H](O)[C@@H](CO)O2)c(=O)[nH]c1=O` (some centres undefined) showed a pIC50 of 5.85.
For `CCOC(=O)C1=C(N)OC2=C(C(=O)CC(C)(C)C2)C1c1cn([C@H]2C[C@H](O)[C@@H](CO)O2)c(=O)[nH]c1=O` (some centres undefined), the pIC50 was 5.14.
Compound `CC(=O)OC[C@H]1O[C@@H](n2cc(C3C(C#N)=C(N)Oc4cc5ccccc5c(O)c43)c(=O)[nH]c2=O)C[C@@H]1OC(C)=O` (some centres undefined) has a pIC50 of under 4.00.
With `CC(=O)OC[C@H]1O[C@@H](n2cc(C3C(C#N)=C(N)OC4=C3C(=O)CCC4)c(=O)[nH]c2=O)C[C@@H]1OC(C)=O` (some centres undefined) the pIC50 was 4.16.
In the case of `CC(=O)OC[C@H]1O[C@@H](n2cc(C3C(C#N)=C(N)OC4=C3C(=O)CC(c3ccc(Cl)cc3)C4)c(=O)[nH]c2=O)C[C@@H]1OC(C)=O` (some centres undefined), the pIC50 was 4.10.
For `CC1(C)CC(=O)C2=C(C1)OC(N)=C(C#N)C2c1cn([C@H]2C[C@H](O)[C@@H](CO)O2)c(=O)[nH]c1=O` (some centres undefined), the pIC50 was under 4.00.
Work on `CC1=NN(c2ccccc2)C(=O)/C1=C(\C)c1cn([C@H]2C[C@H](O)[C@@H](CO)O2)c(=O)[nH]c1=O` yielded a pIC50 of 5.52.
`CC(=O)OC[C@@H]1O[C@H](n2cc(C3C(C#N)=C(N)OC4CC(c5ccc(N(C)C)cc5)CC(=O)C43)c(=O)[nH]c2=O)C[C@H]1OC(C)=O` (some centres undefined) gave a pIC50 of 4.00.
Compound `CN(C)c1ccc(C2CC(=O)C3C(C2)OC(N)=C(C#N)C3c2cn([C@@H]3C[C@@H](O)[C@H](CO)O3)c(=O)[nH]c2=O)cc1` (some centres undefined) has a pIC50 of 5.21.
In the case of `N#Cc1cn([C@H]2C[C@H](O)[C@@H](CO)O2)c(=O)[nH]c1=O`, the pIC50 was under 4.00.
`CCOC(=O)/C(C#N)=C/c1cn([C@H]2C[C@H](OC(C)=O)[C@@H](COC(C)=O)O2)c(=O)[nH]c1=O` was tested, and the pIC50 was 4.41.
In the case of `CN(C)c1ccc2c(c1)OC(N)=C(C#N)C2c1cn([C@H]2C[C@H](O)[C@@H](CO)O2)c(=O)[nH]c1=O` (some centres undefined), the pIC50 was under 4.00.
For `O=Cc1cn([C@H]2C[C@H](O)[C@@H](CO)O2)c(=O)[nH]c1=O`, the pIC50 was 6.05.
In the case of `CCOC(=O)C1=C(N)OC2=C(C(=O)CC(C)(C)C2)C1c1cn([C@H]2C[C@H](OC(C)=O)[C@@H](COC(C)=O)O2)c(=O)[nH]c1=O` (some centres undefined), the pIC50 was under 4.00.
Compound `CC1CC(=O)C2=C(C1)OC(N)=C(C#N)C2c1cn([C@H]2C[C@H](O)[C@@H](CO)O2)c(=O)[nH]c1=O` (some centres undefined) has a pIC50 of 5.03.
Compound `N#CC1=C(N)OC2=C(C(=O)CC(c3ccc(Cl)cc3)C2)C1c1cn([C@H]2C[C@H](O)[C@@H](CO)O2)c(=O)[nH]c1=O` (some centres undefined) has a pIC50 of under 4.00.
With `CCOC(=O)C1=C(N)OC2=C(C(=O)CCC2)C1c1cn([C@H]2C[C@H](O)[C@@H](CO)O2)c(=O)[nH]c1=O` (some centres undefined) the pIC50 was 4.98.
`N#CC1=C(N)OC2=C(C(=O)CC(c3ccc(F)cc3)C2)C1c1cn([C@H]2C[C@H](O)[C@@H](CO)O2)c(=O)[nH]c1=O` (some centres undefined) gave a pIC50 of 5.08.
`CC(=O)OC[C@H]1O[C@@H](n2cc(C3C(C#N)=C(N)OC4=C3C(=O)CC(C)C4)c(=O)[nH]c2=O)C[C@@H]1OC(C)=O` (some centres undefined) gave a pIC50 of under 4.00.
`CC(=O)OC[C@H]1O[C@@H](n2cc(C3C(C#N)=C(N)OC4=C3C(=O)CC(C)(C)C4)c(=O)[nH]c2=O)C[C@@H]1OC(C)=O` (some centres undefined) was tested, and the pIC50 was 4.09.
With `CC(=O)OC[C@H]1O[C@@H](n2cc(/C=C\C#N)c(=O)[nH]c2=O)C[C@@H]1OC(C)=O` the pIC50 was under 4.00.
In the case of `CCOC(=O)/C(C#N)=C/c1cn([C@H]2C[C@H](O)[C@@H](CO)O2)c(=O)[nH]c1=O`, the pIC50 was 5.72.
`C[C@@H]1[C@H](O)[C@@H](C)/C=C/C=C/C=C/C=C/C=C/C=C/C=C/[C@H](O[C@@H]2O[C@H](C)[C@@H](O)[C@H](N)[C@@H]2O)C[C@@H]2O[C@](O)(C[C@@H](O)C[C@@H](O)[C@H](O)CC[C@@H](O)C[C@@H](O)CC(=O)O[C@H]1C)C[C@H](O)[C@H]2C(=O)O` [AMPHOTERICIN B] was tested, and the pIC50 was 7.00.
For `N=C(N)c1ccc(OCCCCCOc2ccc(C(=N)N)cc2)cc1` [PENTAMIDINE], the pIC50 was 5.18.
Work on `Cc1cn([C@H]2C[C@H](N=[N+]=[N-])[C@@H](CO)O2)c(=O)[nH]c1=O` [ZIDOVUDINE] yielded a pIC50 of 5.47.
